Results as given in article PMC10088252.

Conditions: 600 mg QD (n=10)

In the case of `O=C(Nc1ccc(Oc2ccnc3c2CCN3)c(F)c1)c1c[nH]cc(-c2ccc(F)cc2)c1=O`, the “TRAE Decreased Ccr, any grade” value is reported as 2 (20.0) n (%), the “TRAE Decreased Ccr, grade 3-4” value is reported as 0 n (%) and the “TRAE Decreased appetite, any grade” value is reported as 1 (10.0) n (%). The “TRAE Decreased appetite, grade 3-4” value was 1 (10.0) n (%), the “TRAE Diarrhoea, any grade” value was 1 (10.0) n (%) and the “TRAE Diarrhoea, grade 3-4” value was 0 n (%). For the same compound, the “TRAE Dizziness, any grade” value was 0 n (%), the “TRAE Dizziness, grade 3-4” value was 0 n (%) and the “TRAE Dry mouth, any grade” value was 0 n (%). For the same compound, the “TRAE Dry mouth, grade 3-4” value was 0 n (%), the “TRAE Dysgeusia, any grade” value was 5 (50.0) n (%) and the “TRAE Dysgeusia, grade 3-4” value was 1 (10.0) n (%). The “TRAE Dyskinesia, any grade” value was 1 (10.0) n (%), the “TRAE Dyskinesia, grade 3-4” value was 1 (10.0) n (%) and the “TRAE Dysphonia, any grade” value was 1 (10.0) n (%). The “TRAE Dysphonia, grade 3-4” value was 0 n (%), the “TRAE Dyspnoea, any grade” value was 1 (10.0) n (%) and the “TRAE Dyspnoea, grade 3-4” value was 1 (10.0) n (%). The “TRAE Electrocardiogram QT prolonged, any grade” value was 0 n (%), the “TRAE Electrocardiogram QT prolonged, grade 3-4” value was 0 n (%) and the “TRAE Elevated ALT, any grade” value was 3 (30.0) n (%). The “TRAE Elevated ALT, grade 3-4” value was 0 n (%), the “TRAE Elevated AST, any grade” value was 1 (10.0) n (%) and the “TRAE Elevated AST, grade 3-4” value was 0 n (%). For the same compound, the “TRAE Elevated D dimer, any grade” value was 1 (10.0) n (%), the “TRAE Elevated D dimer, grade 3-4” value was 0 n (%) and the “TRAE Elevated GGT, any grade” value was 0 n (%). For the same compound, the “TRAE Elevated GGT, grade 3-4” value was 0 n (%), the “TRAE Elevated LDH, any grade” value was 0 n (%) and the “TRAE Elevated LDH, grade 3-4” value was 0 n (%). For the same compound, the “TRAE Elevated alpha-HBDH, any grade” value was 0 n (%), the “TRAE Elevated alpha-HBDH, grade 3-4” value was 0 n (%) and the “TRAE Elevated bilirubin, any grade” value was 2 (20.0) n (%). For the same compound, the “TRAE Elevated bilirubin, grade 3-4” value was 0 n (%), the “TRAE Elevated blood creatinine, any grade” value was 1 (10.0) n (%) and the “TRAE Elevated blood creatinine, grade 3-4” value was 0 n (%). For the same compound, the “TRAE Elevated creatine phosphokinase, any grade” value was 0 n (%), the “TRAE Elevated creatine phosphokinase, grade 3-4” value was 0 n (%) and the “TRAE Elevated serum urea, any grade” value was 0 n (%). The “TRAE Elevated serum urea, grade 3-4” value was 0 n (%), the “TRAE Elevated troponin, any grade” value was 0 n (%) and the “TRAE Elevated troponin, grade 3-4” value was 0 n (%). For the same compound, the “TRAE Genital rash, any grade” value was 1 (10.0) n (%), the “TRAE Genital rash, grade 3-4” value was 0 n (%) and the “TRAE Haematuria, any grade” value was 0 n (%). The “TRAE Haematuria, grade 3-4” value was 0 n (%), the “TRAE Headache, any grade” value was 0 n (%) and the “TRAE Headache, grade 3-4” value was 0 n (%). The “TRAE Hyperhidrosis, any grade” value was 0 n (%), the “TRAE Hyperhidrosis, grade 3-4” value was 0 n (%) and the “TRAE Hyperlipidaemia, any grade” value was 0 n (%). The “TRAE Hyperlipidaemia, grade 3-4” value was 0 n (%), the “TRAE Hypertension, any grade” value was 2 (20.0) n (%) and the “TRAE Hypertension, grade 3-4” value was 1 (10.0) n (%). The “TRAE Hypoaesthesia oral, any grade” value was 0 n (%), the “TRAE Hypoaesthesia oral, grade 3-4” value was 0 n (%) and the “TRAE Hypocalcaemia, any grade” value was 1 (10.0) n (%). For the same compound, the “TRAE Hypocalcaemia, grade 3-4” value was 0 n (%), the “TRAE Hypotension, any grade” value was 0 n (%) and the “TRAE Hypotension, grade 3-4” value was 0 n (%). For the same compound, the “TRAE Insomnia, any grade” value was 0 n (%), the “TRAE Insomnia, grade 3-4” value was 0 n (%) and the “TRAE Leukopenia, any grade” value was 1 (10.0) n (%). For the same compound, the “TRAE Leukopenia, grade 3-4” value was 0 n (%), the “TRAE Nausea, any grade” value was 0 n (%) and the “TRAE Nausea, grade 3-4” value was 0 n (%). For the same compound, the “TRAE Neuritis, any grade” value was 2 (20.0) n (%), the “TRAE Neuritis, grade 3-4” value was 0 n (%) and the “TRAE Occult blood, any grade” value was 1 (10.0) n (%). The “TRAE Occult blood, grade 3-4” value was 0 n (%), the “TRAE Oedema peripheral, any grade” value was 1 (10.0) n (%) and the “TRAE Oedema peripheral, grade 3-4” value was 0 n (%). The “TRAE Onycholysis, any grade” value was 0 n (%), the “TRAE Onycholysis, grade 3-4” value was 0 n (%) and the “TRAE Oropharyngeal pain, any grade” value was 1 (10.0) n (%). The “TRAE Oropharyngeal pain, grade 3-4” value was 1 (10.0) n (%), the “TRAE PPE, any grade” value was 1 (10.0) n (%) and the “TRAE PPE, grade 3-4” value was 0 n (%). The “TRAE Paraesthesia, any grade” value was 0 n (%), the “TRAE Paraesthesia, grade 3-4” value was 0 n (%) and the “TRAE Proteinuria, any grade” value was 1 (10.0) n (%). For the same compound, the “TRAE Proteinuria, grade 3-4” value was 0 n (%), the “TRAE Pruritus, any grade” value was 0 n (%) and the “TRAE Pruritus, grade 3-4” value was 0 n (%).
